Results as given in patent EP1705169A2, “Triphenylalkene derivatives and their use as selective estrogen receptor modulators” (priority 1999, dated 2001).
Like-named read-outs stand apart in the source and are kept apart here.

Columns and labels:
[1] = tested on: ovariectomized rats; test: Ash weight of tibial epiphyses in ovariectomized rats after 4 weeks dosing; assay type: in vivo; conditions: 3.0 mg/kg p.o., beginning one week after ovariectomy (Sham 34.0 ± 2.9; OVX 32.2 ± 2.8), * = p < 0.05 vs ovariectomized
Excerpt: (§1) Compounds were given p.o. to female rats for 4 or 5 weeks daily. At the end a blood sample was taken. Serum was separated by centrifugation and frozen until analyzed for total amount of cholesterol. Bone samples were taken from vertebra and tibia. Physical strength of the bones was studied as described by Peng et al, 1994. The assessments of the bone included: • Ash weight of tibial epiphyses • Epiphyses of one tibia was carefully prepared and burned. Samples were burned to remove water and organic material. Ash weight relates to the mineral content of the bone. In addition, bone samples were taken to study the histomorphometry. In some cases the bone formation was studied by injecting tetracycline (50 mg/kg i.p. 10 days before autopsy) and calcein (20 mg/kg i.p. 3 days before autopsy). The method is based on permanent binding of tetracycline into growing bone and its detection by fluorescence (Peng et al, 1994).

[2] = tested on: ovariectomized (OVX) rats; test: Serum cholesterol level in ovariectomized (OVX) rats after 4 weeks dosing; assay type: in vivo, rat; conditions: for Cholesterol level (mmol/1) in serum: OVX rat, n=8 (Sham 3.8 ± 0.4; OVX 4.6 ± 0.7); for Effect on cholesterol (in words): summary statement referring to Table 4
Excerpt: as §1

[3] = tested on: ovariectomized rats; conditions: 3.0 mg/kg peroral daily, 4 weeks, ovariectomized rats (Sham 0.497 ± 0.103; Ovariectomized 0.099 ± 0.016)
[4] = tested on: MCF-7 cells; test: cells; conditions: for inhibition at 1 µM / Emax / cytotoxicity at 10 µM: Homo sapiens, MCF7, 96 h; for inhibition at 1 µM: read-out: Antagonism at 1 µM (% of full antagonism); for Emax: read-out: Maximal Agonism (% of E2); for cytotoxicity at 10 µM: toxicity at 10 µmol/l, 100 = all cells dead
Experimental: For experiments involving hormone or anti-hormone treatment, the cells in exponential growth phase were precultivated in the absence of estradiol for one day. […] After the incubation period the medium was removed. The exposure to study drugs was started immediately by adding fresh medium with 5 % stripped serum. Half of the cells were grown with estradiol, half without estradiol. Study compounds (dissolved in ethanol in 0.01 M concentration and diluted with the growth medium as appropriate) were added. The final concentrations of the compounds were 1,10, and 100 nM, and 1 and 10 µM. The cells were incubated for four days.
This method allows evaluation of estrogenicity based on the ability of the compounds to stimulate the growth of the estrogen-dependent cells in the absence of estradiol. Estrogenicity was estimated by comparing the maximal growth stimulus (at any concentration) of study compound as per cent from growth stimulus by estradiol (100 % stimulus). […] At high concentrations molecules may also show toxicity. Toxicity was estimated as the fraction of dead cells (i.e. 100 % means that all cells have died during the exposure).

[5] = tested on: ovariectomized rats; test: Strength of femoral neck (cantilever bending test) in ovariectomized rats after 4 weeks dosing; assay type: in vivo; conditions: 3.0 mg/kg p.o., beginning one week after ovariectomy (Sham 86.7 ± 10.4; OVX 68.4 ± 8.5), * = p < 0.05 vs ovariectomized
Excerpt: as §1
The mechanical testing of bones was carried out by materials testing machine, constructed in-house at Oulu University (Technical Services Department of the Medical Faculty). The testing machine is based on lever arm principle. One end of a steel lever is fixed. […] Compressive force is measured by a temperature-compensated force sensor, which is attached to the stationary part of the compression stage. […]
The maximal load on the femoral neck was measured by the cantilever bending test. […]

[6] = tested on: immature female rats; test: 3 day uterotropic assay in immature female rats (given alone and with estradiol); assay type: in vivo; conditions: 3 days, immature female rats
Experimental: The values are given at two dose levels, low i.e. 3―5 mg/kg and high i.e. 10―50 mg/kg. Estrogenic activity can be estimated also after a 4 weeks' treatment of ovariectomized rats based on the uterine size.

[7] = read-out: Maximal Cell Kill (% fraction of dead cells), With estradiol (E2)
[8] = read-out: Maximal Cell Kill (% fraction of dead cells), Without estradiol (E2)
[9] = summary statement referring to Table 2

Structure (SMILES)	Ash weight (mg) of tibial epiphyses [1]	Cholesterol level (mmol/1) in serum ([2]; 3 mg/kg, 4 weeks dosing) [mmol/1]	Effect on ovariectomy-induced increase of serum cholesterol level (in words) ([2]; OVX rats, 4 weeks dosing)	Effect on cholesterol (in words) [2]	Uterine size [3] [g]	inhibition at 1 µM [4] [%]	Emax [4] [%]	cytotoxicity at 10 µM [4, 7] [%]	cytotoxicity at 10 µM [4, 8] [%]	Kill of MCF-7 cells (in words) ([4]; highest investigated concentration (10 µM), Table 2)	Hormonal activity (in words) [4, 9]	Estrogenic and antiestrogenic action (in words) ([4]; summary statement referring to Tables 2, 3 and 4)	Maximal load (N) of femoral neck [5]	Estrogen antagonism (% inhibition of estradiol) Given with estradiol ([6]; dose 3–5 mg/kg)	Uterotropic effect (% of estradiol) Given without estradiol ([6]; dose 3–5 mg/kg)	Estrogen antagonism (% inhibition of estradiol) Given with estradiol ([6]; dose 10–50 mg/kg)	Uterotropic effect (% of estradiol) Given without estradiol ([6]; dose 10–50 mg/kg)	Cytotoxic action (in words) [4, 9]	Cholesterol level (mmol/1) in serum ([2]; 3 µg/kg, 4 weeks dosing) [mmol/1]
CN(C)CCOc1ccc(/C(=C(/CCCl)c2ccccc2)c2ccc(Cl)cc2)cc1 [No. 3, (E)-(2-{4-[4-Chloro-1-(4-chlorophenyl)-2-phenylbut-1-enyl]phenoxy}-ethyl)dimethylamine]	36.0±3.4* mg	3.1 ± 0.4	can prevent this increase even at very low dose and decrease the level below the sham operated level	decrease cholesterol	0.140 ± 0.006	1	1	94	100	kill MCF-7 cells (human breast cancer cells) effectively	weak hormonal activity	weak estrogenic and no antiestrogenic action	92.5±11.1* N	65 % inhibition of estradiol	44 % of estradiol	38 % inhibition of estradiol	54 % of estradiol	–	–
CN(C)CCOc1cccc(/C(=C(/CCCl)c2ccccc2)c2ccccc2)c1 [No. 33, (Z)-{2-[3-(4-Chloro-1,2-diphenylbut-1-enyl)phenoxy]ethyl}dimethylamine]	–	–	–	decrease cholesterol	–	58	–	80	0	–	–	–	–	–	–	–	–	weak	–
O=C(c1ccc(OCCN2CCCCC2)cc1)c1c(-c2ccc(O)cc2)sc2cc(O)ccc12 [Raloxifene, reference compound]	34.9 ± 3.5 mg	–	–	–	0.141 ± 0.021	–	–	–	–	–	–	–	84.2 ± 18.4* N	90 % inhibition of estradiol	11 % of estradiol	92 % inhibition of estradiol	13 % of estradiol	–	–
CN(C)CCOc1ccc(/C(=C(/CCCl)c2ccccc2)c2ccccc2)cc1 [Toremifene, 4-chloro-1,2-diphenyl-1-[4-[2-(N,N-dimethylamino)ethoxy]phenyl]-1-butene, Z-isomer, reference compound]	–	–	–	–	–	44	37	100	100	–	–	–	–	45 % inhibition of estradiol	26 % of estradiol	58 % inhibition of estradiol	44 % of estradiol	–	–
C[C@]12CC[C@@H]3c4ccc(O)cc4CC[C@H]3[C@@H]1CC[C@@H]2O [estradiol, reference compound]	–	–	–	–	–	–	–	–	–	–	–	–	–	–	–	–	–	–	4.0 ± 0.4
